Source: US5753635A, “Purine derivatives and their use as anti-coagulants” (Berlex Laboratories, Inc., priority 1996, dated 1998)
Non-standard residues stand in square brackets, D forms with d. Residues, ends and D or L forms follow the SMILES beside them. *: point of attachment. pNA = O=[N+]([O-])c1ccc(N*)cc1

Tests used:
[1] = target: T1, Human tissue plasminogen activator (tPA) (Two chains, Sigma) (Homo sapiens, UniProt P00750); test: In vitro chromogenic assay for tissue plasminogen activator; format: biochemical; conditions: substrate concentration stated equal to Km; 10 nM tPA, pH 7.5, ambient temperature; read-out: Km (S2288)
T1 construct: purchased Sigma
T1 sequence (P00750 311-562 limits assumed): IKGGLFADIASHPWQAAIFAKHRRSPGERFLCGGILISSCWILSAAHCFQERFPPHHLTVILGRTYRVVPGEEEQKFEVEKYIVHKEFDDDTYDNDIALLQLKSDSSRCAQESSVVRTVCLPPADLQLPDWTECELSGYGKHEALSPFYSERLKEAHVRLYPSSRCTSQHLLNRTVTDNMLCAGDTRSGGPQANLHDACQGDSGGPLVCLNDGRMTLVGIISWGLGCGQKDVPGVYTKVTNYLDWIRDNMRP
T1 sequence (P00750 36-310 partner limits assumed): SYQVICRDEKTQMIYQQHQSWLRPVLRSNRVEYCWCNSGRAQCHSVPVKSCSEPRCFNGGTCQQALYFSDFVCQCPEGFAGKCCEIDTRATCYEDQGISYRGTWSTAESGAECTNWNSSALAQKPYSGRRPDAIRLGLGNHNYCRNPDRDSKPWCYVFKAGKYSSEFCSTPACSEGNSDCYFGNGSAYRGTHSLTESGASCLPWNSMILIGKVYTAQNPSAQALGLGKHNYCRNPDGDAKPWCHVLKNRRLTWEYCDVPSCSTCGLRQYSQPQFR
Description: (§1) The activities were determined as an initial rate of cleavage of the peptide p-nitroanilide by the enzyme. The cleavage product, p-nitroaniline, absorbs at 405 nm with a molar extinction coefficient of 9920 M^-1 cm^-1.
(§2) 50 mM TrisHCl, 150 mM NaCl, 2.5 mM CaCl2, and 0.1% polyethylene glycol 6000, pH 7.5.
3. Human tissue plasminogen activator (tPA) (Two chains, Sigma) stock solution: 1 mg/mL, stored at -80° C. (working solution (2×): 1361 ng/mL in assay buffer, prepare prior to use).
3. S2288 (tPA assay) stock solution: 10 mM in dH2 O, stored at 4° C. (working solution (4×):
1484 μM in assay buffer).
Assays were performed in 96-well microtiter plates in a total volume of 200 μl. […] Concentrations of the standard inhibitor compound in the assay were from 5 μM to 0.021 μM in 1 to 3 dilution. Concentration of the test compounds in the assay typically were from 10 μM to 0.041 μM in 1 to 3 dilution. […]
(§3) The enzyme kinetics were measured at 405 nm at 10 seconds intervals for five minutes in a THERMOmax plate reader at ambient temperature.
(§4) Enzyme rates were calculated as mOD/min based on the first two minutes readings. The IC50 values were determined by fitting the data to the log-logit equation (linear) or the Morrison equation (non-linear) with an EXCEL spread-sheet. […]

Human thrombin = target: T2, Human thrombin (Homo sapiens, UniProt P00734); test: In vitro chromogenic assay for thrombin; format: biochemical; conditions: substrate concentration stated equal to Km; 20 nM thrombin, pH 7.5, ambient temperature; read-out: Km (S2302)
T2 construct: Human thrombin stock solution; purchased Enzyme Research Lab
Description: as §1, §2
2. Human thrombin stock solution: Stored at -80° C. (working solution (2×): 1200 ng/mL or 40 nM in assay buffer, prepare prior to use).
2. S2302 (Thrombin assay) stock solution: 10 mM in dH2 O, stored at 4° C. (working solution (4×): 1200 μM in assay buffer).
Assays were performed in 96-well microtiter plates in a total volume of 200 μl. […] Concentrations of the standard inhibitor compound in the assay were from 5 μM to 0.021 μM in 1 to 3 dilution. Concentration of the test compounds in the assay typically were from 10 μM to 0.041 μM in 1 to 3 dilution. For potent test compounds, the concentrations used in the factor Xa assays were further diluted 100 fold (100 nM to 0.41 nM) or 1000 fold (10 nM to 0.041 nM). […]
as §3, §4

CC[C@@H](C)[C@@H](N)C(=O)N1CCC[C@H]1C(=O)N[C@@H](CCCN=C(N)N)C(=O)Nc1ccc([N+](=O)[O-])cc1 [Example S2288] (H-[dI]-Pro-Arg-pNA)
Km [1]: 371 µM

N=C(N)NCCC[C@H](NC(=O)[C@H](Cc1ccccc1)NC(=O)[C@H]1CCCN1)C(=O)Nc1ccc([N+](=O)[O-])cc1 [Example S2302] (H-[dP]-Phe-Arg-pNA)
Km (Human thrombin): 300 µM
